Measurements published in ChEMBL document CHEMBL1201862, “PubChem BioAssay data set” (2004).
Active and inactive are the calls of the source.

What was measured:
[1] = target: Luciferin 4-monooxygenase (Photinus pyralis, UniProt P08659); assay: firefly luciferase enzyme inhibitors, dose response, biochemical, luminescence (AID 1891)
[2] = target: T1, Estrogen receptor (Homo sapiens, UniProt P03372);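 note: potency for inhibiting coactivator peptide recruitment to the receptor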
T1 sequence (P03372 whole entry): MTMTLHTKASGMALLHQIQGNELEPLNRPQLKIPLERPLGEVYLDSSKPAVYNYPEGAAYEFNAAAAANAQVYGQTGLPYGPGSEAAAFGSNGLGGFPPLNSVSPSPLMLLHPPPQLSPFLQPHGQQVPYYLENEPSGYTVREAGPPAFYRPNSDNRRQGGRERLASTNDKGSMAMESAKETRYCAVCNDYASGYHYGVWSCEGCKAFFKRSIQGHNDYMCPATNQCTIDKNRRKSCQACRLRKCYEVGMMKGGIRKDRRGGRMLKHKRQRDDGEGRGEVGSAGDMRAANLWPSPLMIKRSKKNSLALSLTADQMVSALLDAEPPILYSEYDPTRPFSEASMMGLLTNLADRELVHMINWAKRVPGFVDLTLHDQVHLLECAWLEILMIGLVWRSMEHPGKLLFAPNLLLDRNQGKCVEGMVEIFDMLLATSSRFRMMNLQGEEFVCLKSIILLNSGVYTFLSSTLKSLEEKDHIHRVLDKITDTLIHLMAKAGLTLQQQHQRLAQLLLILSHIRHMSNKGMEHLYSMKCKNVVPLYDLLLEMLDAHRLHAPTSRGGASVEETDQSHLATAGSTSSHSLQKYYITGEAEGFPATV

[3] = Luminescence Cell-Based Dose Confirmation HTS to Identify Inhibitors of Platelet Dense Granule Release. [Related pubchem assays: 1663 (Primary HTS), 1678 (Summary of Project)]; assay type: functional
[4] = target: T2, Estrogen receptor beta (Homo sapiens, UniProt Q92731);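 note: recombinant ER-beta bound to coactivator SRC1 peptide in presence of estradiol agonist; inhibitors block coactivator peptide binding and lower the FRET signal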
T2 sequence (Q92731 whole entry): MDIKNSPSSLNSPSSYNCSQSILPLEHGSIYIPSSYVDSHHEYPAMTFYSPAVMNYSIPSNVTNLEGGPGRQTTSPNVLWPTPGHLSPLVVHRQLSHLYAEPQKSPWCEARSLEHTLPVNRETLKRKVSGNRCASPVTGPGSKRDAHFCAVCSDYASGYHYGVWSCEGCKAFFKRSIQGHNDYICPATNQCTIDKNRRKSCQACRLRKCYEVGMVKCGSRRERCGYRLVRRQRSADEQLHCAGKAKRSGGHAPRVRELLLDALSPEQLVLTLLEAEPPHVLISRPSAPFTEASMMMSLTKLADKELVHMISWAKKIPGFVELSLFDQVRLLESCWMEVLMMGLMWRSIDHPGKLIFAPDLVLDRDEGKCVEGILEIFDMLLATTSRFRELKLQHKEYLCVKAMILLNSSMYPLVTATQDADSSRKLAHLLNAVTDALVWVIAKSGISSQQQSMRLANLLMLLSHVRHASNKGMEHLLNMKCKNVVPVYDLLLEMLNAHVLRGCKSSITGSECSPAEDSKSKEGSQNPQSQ

[5] = target: T2, Estrogen receptor beta; assay: ERβ–SRC-3 coactivator interaction inhibitors, confirmation, orthogonal assay, biochemical, ELISA, streptavidin-HRP readout (AID 1060)
[6] = target: T3, Carboxy-terminal domain RNA polymerase II polypeptide A small phosphatase 1 (Homo sapiens, UniProt Q9GZU7); assay: inhibitors of CTDSP1, concentration-response testing, biochemical assay, absorbance-based, actives from ultra-high-throughput screening (AID 540297); assay type: functional
T3 sequence (Q9GZU7 whole entry): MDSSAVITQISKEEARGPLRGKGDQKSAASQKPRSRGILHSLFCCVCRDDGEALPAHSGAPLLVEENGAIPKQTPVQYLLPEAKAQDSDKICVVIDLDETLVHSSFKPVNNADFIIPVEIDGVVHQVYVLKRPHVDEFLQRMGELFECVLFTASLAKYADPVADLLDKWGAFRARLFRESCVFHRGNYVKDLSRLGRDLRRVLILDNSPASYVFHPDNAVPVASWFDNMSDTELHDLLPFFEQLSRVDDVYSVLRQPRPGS

[7] = Luminescence Cell-Based Dose Confirmation HTS to Identify Inhibitors of Polyadenylation.; assay type: functional
[8] = target: T4, Tyrosine-protein phosphatase non-receptor type 7 (Homo sapiens, UniProt P35236); assay: inhibitors of human HePTP phosphatase, […], biochemical, absorbance, leukemia target (AID 521); assay type: functional
T4 sequence (P35236 whole entry): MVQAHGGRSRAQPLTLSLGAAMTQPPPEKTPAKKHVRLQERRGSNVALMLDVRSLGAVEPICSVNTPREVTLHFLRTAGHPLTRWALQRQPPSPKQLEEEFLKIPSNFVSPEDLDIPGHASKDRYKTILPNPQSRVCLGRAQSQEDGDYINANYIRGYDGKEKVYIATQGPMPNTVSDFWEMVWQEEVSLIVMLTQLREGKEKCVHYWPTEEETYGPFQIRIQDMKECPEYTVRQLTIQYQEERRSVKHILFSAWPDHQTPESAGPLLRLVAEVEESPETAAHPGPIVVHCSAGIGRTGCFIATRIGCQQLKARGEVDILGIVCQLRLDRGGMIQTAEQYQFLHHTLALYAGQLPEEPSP

[9] = target: T5, Calpain-2 catalytic subunit (Sus scrofa, UniProt P43367); assay: pig calpain II inhibitor potency, dose response, biochemical, fluorogenic peptide substrate (AID 1420); assay type: functional
T5 sequence (P43367 whole entry): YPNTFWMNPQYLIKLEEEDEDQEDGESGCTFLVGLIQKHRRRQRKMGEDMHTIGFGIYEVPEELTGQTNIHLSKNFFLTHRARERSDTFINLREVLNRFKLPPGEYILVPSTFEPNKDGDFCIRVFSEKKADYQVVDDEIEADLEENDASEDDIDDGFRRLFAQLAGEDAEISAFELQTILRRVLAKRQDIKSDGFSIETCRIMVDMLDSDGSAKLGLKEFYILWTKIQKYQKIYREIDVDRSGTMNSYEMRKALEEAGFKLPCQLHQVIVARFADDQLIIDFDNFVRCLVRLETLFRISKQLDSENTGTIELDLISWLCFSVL

[10] = target: Voltage-gated inwardly rectifying potassium channel KCNH2 (Homo sapiens, UniProt Q12809); assay: hERG protection from proarrhythmic block, potency, dose response, cell-based, thallium flux (AID 2121); assay type: ADME
[11] = target: T6, Polyadenylate-binding protein 1 (Homo sapiens, UniProt P11940); assay: PABP1 MLLE–PAM2 interaction inhibitors, dose response, miRNA deadenylation inhibitor project, biochemical, fluorescence polarization, Cy5-PAM2 peptide, secondary (AID 602260); assay type: functional; conditions: read-out: IC50_Mean
T6 sequence (P11940 whole entry): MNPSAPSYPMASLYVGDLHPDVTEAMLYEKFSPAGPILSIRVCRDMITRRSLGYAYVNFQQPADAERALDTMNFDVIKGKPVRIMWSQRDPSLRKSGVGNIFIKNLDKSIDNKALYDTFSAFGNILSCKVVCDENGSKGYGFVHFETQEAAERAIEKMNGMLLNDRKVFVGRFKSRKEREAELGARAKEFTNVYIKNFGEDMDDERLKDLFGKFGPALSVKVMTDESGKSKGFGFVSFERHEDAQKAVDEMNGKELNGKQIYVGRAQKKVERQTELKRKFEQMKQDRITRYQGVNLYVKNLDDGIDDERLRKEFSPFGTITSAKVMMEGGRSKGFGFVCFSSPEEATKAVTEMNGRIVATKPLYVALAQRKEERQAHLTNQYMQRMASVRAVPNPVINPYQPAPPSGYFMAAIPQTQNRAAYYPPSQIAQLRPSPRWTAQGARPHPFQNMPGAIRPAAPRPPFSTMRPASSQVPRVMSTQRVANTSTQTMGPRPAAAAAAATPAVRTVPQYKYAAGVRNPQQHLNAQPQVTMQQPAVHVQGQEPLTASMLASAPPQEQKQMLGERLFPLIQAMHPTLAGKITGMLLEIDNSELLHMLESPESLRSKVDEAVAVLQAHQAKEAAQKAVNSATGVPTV

[12] = target: T6, Polyadenylate-binding protein 1; assay: PABP1 MLLE–PAM2 binding inhibitor potency, dose response, biochemical, fluorescence polarization, FITC-PAM2 peptide (AID 602259); assay type: functional; conditions: read-out: IC50_Mean
[13] = target: 5-hydroxytryptamine receptor 1A (Homo sapiens, UniProt P08908); assay type: functional
Sequence of 5-hydroxytryptamine receptor 1A (P08908 whole entry): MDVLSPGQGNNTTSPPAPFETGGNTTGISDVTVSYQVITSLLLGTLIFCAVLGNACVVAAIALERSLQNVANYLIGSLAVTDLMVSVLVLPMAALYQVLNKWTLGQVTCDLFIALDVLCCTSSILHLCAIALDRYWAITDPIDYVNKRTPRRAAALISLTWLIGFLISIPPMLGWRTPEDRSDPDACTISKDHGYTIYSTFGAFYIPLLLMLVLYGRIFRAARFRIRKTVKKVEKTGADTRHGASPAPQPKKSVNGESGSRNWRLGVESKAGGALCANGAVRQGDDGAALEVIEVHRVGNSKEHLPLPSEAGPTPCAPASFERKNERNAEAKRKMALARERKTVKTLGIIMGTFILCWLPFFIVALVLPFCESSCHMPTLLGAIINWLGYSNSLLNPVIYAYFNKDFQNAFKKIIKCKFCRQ

[14] = target: T7, Protein skinhead-1 (Caenorhabditis elegans, UniProt P34707); assay type: functional
T7 sequence (P34707 whole entry): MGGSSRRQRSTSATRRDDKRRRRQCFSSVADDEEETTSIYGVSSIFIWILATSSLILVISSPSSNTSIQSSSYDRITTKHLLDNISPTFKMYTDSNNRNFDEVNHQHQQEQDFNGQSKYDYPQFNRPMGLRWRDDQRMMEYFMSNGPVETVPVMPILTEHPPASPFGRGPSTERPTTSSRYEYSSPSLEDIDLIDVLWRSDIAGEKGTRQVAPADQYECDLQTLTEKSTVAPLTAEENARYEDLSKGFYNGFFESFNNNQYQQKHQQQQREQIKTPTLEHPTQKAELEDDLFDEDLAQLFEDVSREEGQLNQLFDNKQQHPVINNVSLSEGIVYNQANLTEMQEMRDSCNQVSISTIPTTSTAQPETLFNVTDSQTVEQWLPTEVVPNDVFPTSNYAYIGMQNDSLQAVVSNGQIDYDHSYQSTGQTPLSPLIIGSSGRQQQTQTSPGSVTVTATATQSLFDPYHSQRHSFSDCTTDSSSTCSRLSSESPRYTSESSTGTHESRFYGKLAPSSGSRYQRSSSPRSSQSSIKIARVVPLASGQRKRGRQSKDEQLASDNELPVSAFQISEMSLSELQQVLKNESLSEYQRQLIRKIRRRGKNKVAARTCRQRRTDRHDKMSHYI

[15] = Luminescence Cell-Based Dose Response to Identify Activators of 5'UTR Stem-Loop Driven Prion Protein mRNA Translation in H4-C Neuroglioblastoma Cells. [Related pubchem assays: 1829 (Project Summary), 1814 (Primary HTS)]; assay type: functional
[16] = Luminescence Cell-Based Dose Response HTS to Identify Activators of Luciferase Translation or Activity in H4 […] Cells. [Related pubchem assays: 1829 (Project Summary), 1814 (Primary HTS)]; assay type: functional
[17] = system: H4; assay: Luminescence Cell-Based Dose Response HTS to Identify Activators of 5'UTR Stem-Loop Driven Prion Protein mRNA Translation in H4 Neuroglioblastoma Cells. [Related pubchem assays: 1829 (Project Summary), 1814 (Primary HTS)]; assay type: functional; conditions: Homo sapiens
[18] = Luminescence Cell-Based Dose Response to Identify Activators of Luciferase Translation or Activity in H4-C Neuroglioblastoma Cells. [Related pubchem assays: 1829 (Project Summary), 1814 (Primary HTS)]; assay type: functional
[19] = Luminescence Cell-Based Dose Confirmation to Identify Activators of 5'UTR Stem-Loop Driven Alpha-Synuclein mRNA Translation in H4 Neuroglioblastoma Cells. [Related pubchem assays: 1829 (Project Summary), 1814 (Primary HTS)]; assay type: functional
[20] = target: Cytochrome P450 2C19 (Homo sapiens, UniProt P33261); assay: Cytochrome panel assay with activity outcomes. Panel member name: p450-cyp2c19 Compounds with AC50 equal or less than 10 uM are considered active; assay type: functional; conditions: read-out: AC50
Sequence of Cytochrome P450 2C19 (P33261 whole entry): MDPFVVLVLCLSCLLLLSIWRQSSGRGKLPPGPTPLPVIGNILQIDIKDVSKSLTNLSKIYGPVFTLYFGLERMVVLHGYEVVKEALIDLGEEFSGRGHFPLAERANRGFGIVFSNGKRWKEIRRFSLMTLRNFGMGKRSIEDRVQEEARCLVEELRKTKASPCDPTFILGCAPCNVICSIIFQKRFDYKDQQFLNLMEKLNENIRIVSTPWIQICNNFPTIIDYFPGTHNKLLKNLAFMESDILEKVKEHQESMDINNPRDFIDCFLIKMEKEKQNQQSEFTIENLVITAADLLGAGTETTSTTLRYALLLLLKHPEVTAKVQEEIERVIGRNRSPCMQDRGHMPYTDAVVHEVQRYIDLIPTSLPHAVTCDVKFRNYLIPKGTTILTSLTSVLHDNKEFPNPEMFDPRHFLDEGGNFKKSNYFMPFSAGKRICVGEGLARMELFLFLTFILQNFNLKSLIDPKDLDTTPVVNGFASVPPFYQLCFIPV

[21] = target: Cytochrome P450 2D6 (Homo sapiens, UniProt P10635);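 note: CYP2D6 member of a cytochrome P450 panel assay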
Sequence of Cytochrome P450 2D6 (P10635 whole entry): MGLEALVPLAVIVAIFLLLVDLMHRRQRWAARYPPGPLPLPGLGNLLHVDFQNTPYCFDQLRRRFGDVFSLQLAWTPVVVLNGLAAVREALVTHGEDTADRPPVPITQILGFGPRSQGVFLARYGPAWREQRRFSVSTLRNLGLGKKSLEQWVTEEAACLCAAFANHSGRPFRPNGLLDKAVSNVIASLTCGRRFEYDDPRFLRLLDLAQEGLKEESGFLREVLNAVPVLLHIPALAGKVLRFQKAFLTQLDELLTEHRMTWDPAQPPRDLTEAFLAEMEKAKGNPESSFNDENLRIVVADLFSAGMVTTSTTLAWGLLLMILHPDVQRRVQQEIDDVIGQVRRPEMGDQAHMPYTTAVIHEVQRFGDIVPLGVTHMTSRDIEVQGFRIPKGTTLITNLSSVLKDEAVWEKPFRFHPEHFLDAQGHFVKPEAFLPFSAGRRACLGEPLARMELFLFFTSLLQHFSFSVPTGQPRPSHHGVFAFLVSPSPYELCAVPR

[22] = target: Induced myeloid leukemia cell differentiation protein Mcl-1 (Homo sapiens, UniProt Q07820); assay: MCL1-BIM BH3 interaction inhibitors, dose response, biochemical, fluorescence polarization, BIM-BH3 peptide, 1536-well (AID 2217)
Sequence of Induced myeloid leukemia cell differentiation protein Mcl-1 (Q07820 whole entry): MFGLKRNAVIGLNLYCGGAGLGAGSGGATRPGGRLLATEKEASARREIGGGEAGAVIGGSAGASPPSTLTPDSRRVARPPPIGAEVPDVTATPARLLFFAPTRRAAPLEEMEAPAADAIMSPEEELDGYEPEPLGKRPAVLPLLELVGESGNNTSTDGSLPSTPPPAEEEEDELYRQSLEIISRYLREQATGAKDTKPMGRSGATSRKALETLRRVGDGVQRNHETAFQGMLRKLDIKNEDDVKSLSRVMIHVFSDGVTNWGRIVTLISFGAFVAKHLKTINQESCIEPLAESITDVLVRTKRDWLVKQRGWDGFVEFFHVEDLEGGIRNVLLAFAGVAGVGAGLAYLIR

[23] = target: Bcl-2-like protein 1 (Homo sapiens, UniProt Q07817); assay: BCL-XL inhibitors, dose response, selectivity assay for MCL1 inhibitor project, biochemical, fluorescence polarization, 1536-well (AID 2218)
Sequence of Bcl-2-like protein 1 (Q07817 whole entry): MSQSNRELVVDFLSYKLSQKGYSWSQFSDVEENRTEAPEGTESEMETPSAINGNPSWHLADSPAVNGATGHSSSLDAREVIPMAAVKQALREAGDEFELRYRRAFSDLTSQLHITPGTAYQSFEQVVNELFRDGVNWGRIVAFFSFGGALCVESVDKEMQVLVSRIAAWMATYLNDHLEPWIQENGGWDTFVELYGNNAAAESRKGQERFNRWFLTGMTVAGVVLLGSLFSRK

[24] = target: Albumin (Bos taurus, UniProt P02769); assay: Counterscreen for inhibitors of T-cell receptor (TCR)-CD3 interaction: Fluorescence-based biochemical high throughput dose response assay to identify inhibitors of T-cell receptor (TCR)-CD3 interaction using a TAMRA-labeled BSA probe.; assay type: functional
[25] = target: T8, Caspase-6 (Homo sapiens, UniProt P55212); assay: human caspase-6 inhibitors, dose response, biochemical, VEID-R110 fluorescence, cherry-pick (AID 720632)
T8 sequence (P55212 whole entry): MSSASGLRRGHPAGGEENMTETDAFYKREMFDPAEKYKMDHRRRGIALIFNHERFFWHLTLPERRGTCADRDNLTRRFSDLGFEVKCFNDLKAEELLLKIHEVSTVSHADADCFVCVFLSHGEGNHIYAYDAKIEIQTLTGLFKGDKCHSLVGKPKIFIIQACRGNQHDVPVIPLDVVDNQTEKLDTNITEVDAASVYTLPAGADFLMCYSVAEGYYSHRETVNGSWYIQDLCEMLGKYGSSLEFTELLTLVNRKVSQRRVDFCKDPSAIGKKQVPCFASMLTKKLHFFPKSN

[26] = target: T9, RNA-binding protein pos-1 (Caenorhabditis elegans, UniProt G5EF15); assay: inhibitors of POS-1/mex-3 RNA binding, dose response, biochemical, fluorescence polarization (AID 1964);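 note: purified POS-1 fused to maltose binding protein made in E. coli; potency of compounds blocking POS-1 binding to fluorescent RNA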
T9 sequence (G5EF15 whole entry): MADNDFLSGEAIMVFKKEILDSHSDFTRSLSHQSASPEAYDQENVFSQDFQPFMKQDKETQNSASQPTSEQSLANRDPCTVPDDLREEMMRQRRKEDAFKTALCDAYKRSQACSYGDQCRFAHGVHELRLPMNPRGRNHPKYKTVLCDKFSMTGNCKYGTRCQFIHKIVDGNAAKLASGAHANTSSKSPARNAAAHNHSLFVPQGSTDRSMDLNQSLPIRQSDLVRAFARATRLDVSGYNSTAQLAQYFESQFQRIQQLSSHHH

[27] = target: Ubiquitin carboxyl-terminal hydrolase BAP1 (Homo sapiens, UniProt Q92560); assay: BAP1 deubiquitinase inhibitors, dose response, biochemical (AID 714); assay type: functional
Sequence of Ubiquitin carboxyl-terminal hydrolase BAP1 (Q92560 whole entry): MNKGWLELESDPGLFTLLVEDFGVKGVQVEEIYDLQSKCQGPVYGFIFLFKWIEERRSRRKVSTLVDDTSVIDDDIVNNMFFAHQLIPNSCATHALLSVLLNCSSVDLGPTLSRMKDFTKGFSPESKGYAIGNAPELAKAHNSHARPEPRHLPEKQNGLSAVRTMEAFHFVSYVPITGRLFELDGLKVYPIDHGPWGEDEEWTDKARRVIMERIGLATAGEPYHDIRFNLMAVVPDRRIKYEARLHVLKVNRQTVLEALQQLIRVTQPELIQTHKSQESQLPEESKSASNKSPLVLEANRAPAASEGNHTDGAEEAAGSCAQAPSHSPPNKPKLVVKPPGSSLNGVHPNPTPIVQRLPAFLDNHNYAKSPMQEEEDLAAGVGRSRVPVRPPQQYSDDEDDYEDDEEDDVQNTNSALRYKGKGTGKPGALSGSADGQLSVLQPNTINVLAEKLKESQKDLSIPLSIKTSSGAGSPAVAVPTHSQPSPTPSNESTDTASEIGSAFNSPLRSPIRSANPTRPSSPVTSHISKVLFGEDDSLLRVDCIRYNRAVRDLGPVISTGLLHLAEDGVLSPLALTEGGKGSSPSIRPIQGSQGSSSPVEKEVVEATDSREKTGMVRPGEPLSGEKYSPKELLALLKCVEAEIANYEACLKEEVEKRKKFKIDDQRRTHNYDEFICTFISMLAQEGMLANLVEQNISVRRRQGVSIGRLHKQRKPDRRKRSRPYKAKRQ

[28] = target: T10, Zinc finger protein mex-5 (Caenorhabditis elegans, UniProt Q9XUB2); assay: MEX-5/TCR-2 RNA interaction inhibitors, dose response, biochemical, C. elegans, fluorescence polarization (AID 1960)
T10 sequence (Q9XUB2 whole entry): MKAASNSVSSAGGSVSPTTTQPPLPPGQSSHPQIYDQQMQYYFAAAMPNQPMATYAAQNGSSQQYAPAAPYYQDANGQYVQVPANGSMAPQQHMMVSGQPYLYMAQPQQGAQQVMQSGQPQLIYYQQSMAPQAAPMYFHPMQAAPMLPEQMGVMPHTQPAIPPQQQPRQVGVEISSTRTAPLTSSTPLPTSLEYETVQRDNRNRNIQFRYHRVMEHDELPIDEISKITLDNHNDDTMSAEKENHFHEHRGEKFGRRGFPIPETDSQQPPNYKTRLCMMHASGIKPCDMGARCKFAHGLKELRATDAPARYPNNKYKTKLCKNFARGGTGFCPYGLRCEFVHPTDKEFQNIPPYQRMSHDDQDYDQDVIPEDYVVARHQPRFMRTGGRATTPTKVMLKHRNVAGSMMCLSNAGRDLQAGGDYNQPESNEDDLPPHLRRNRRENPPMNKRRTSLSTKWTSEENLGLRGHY

Sequence of Luciferin 4-monooxygenase (P08659 whole entry): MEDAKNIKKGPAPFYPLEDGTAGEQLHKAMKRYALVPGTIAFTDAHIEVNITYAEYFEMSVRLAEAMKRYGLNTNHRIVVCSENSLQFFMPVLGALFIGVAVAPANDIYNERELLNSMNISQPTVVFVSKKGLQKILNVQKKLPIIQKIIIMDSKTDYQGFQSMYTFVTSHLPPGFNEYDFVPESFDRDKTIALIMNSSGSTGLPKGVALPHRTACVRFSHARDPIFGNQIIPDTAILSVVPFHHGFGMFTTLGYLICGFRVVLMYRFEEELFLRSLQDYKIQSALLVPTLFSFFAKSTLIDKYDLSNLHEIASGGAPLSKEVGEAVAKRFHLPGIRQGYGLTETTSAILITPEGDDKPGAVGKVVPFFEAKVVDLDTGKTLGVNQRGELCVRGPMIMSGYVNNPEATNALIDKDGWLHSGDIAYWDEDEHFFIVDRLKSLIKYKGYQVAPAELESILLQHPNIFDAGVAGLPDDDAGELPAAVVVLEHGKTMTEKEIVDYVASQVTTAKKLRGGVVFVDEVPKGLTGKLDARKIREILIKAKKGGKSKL

Cc1ccc(-c2cc(C(=O)NCc3ccco3)c3ccccc3n2)o1
EC50 [1]: 36.8 µM (active)
IC50 [2]: 6.84 µM (active)
EC50 [3]: > 112 µM (not active)
IC50 [4]: 3.37 µM (active)
IC50 [5]: > 50 µM (not active)
IC50 [6]: 4.39 µM (active)

C(=Nc1ncnc2sccc12)NOCc1ccccc1
EC50 [7]: > 120 µM (not active)

Cc1cc(NC(=O)c2ccc3c(c2)C(=O)N(Cc2cccnc2)C3=O)no1
IC50 [8]: > 100 µM (not active)
IC50 [9]: 13.7 µM (not active)

Cc1ccc(C)c(NC(=S)NC(=O)c2cncc(Br)c2)c1
EC50 [10]: 4.77 µM (active)
IC50 [11]: > 66 µM (inactive)
IC50 [12]: > 66 µM (inactive)

O=C(O)C1CCCCC1C(=O)NCCc1c[nH]c2ccccc12 (stereo not drawn)
EC50 [13]: 34.8 µM (not active)
IC50 [14]: > 100 µM (inactive)

C/C(=N\OC(=O)c1ccccc1)c1cc(-c2ccc(Cl)cc2)no1
EC50 [15]: 1.28 µM (active)
EC50 [16]: < 0.1 µM (active)
EC50 [17]: 68.1 µM (active)
EC50 [18]: 1.04 µM (active)
EC50 [19]: 4.74 µM (active)
AC50 [20]: 22.4 µM (inconclusive)
AC50 [21]: inconclusive

Cc1ccc(OCC(=O)c2c(N)n(C)c(=O)n(C)c2=O)c([N+](=O)[O-])n1
IC50 [22]: 8.63 µM (active)
IC50 [23]: 21.3 µM (not active)
IC50 [24]: > 94.1 µM (inactive)
AC50 [25]: 18.9 µM (active)

O=C(c1ccco1)[C@@H]1[C@@H]2C(=O)N(c3ccccc3)C(=O)[C@@H]2C2c3ccccc3C=CN21 (stereo partly drawn)
EC50 [26]: 39.1 µM (active)
IC50 [27]: 23.4 µM (active)
EC50 [28]: 34.9 µM (active)
